# What was measured:
# Assay type in all cases: functional
# KM12 = assay: Growth inhibition of human KM12 cells by sulforhodamine B assay
# HCT-116 = assay: Growth inhibition of human HCT116 cells by sulforhodamine B assay
# NCI-H322M = assay: Growth inhibition of human NCI-H322M cells by sulforhodamine B assay
# K562 [1] = assay: Growth inhibition of human K562 cells by sulforhodamine B assay
# UACC-62 = assay: Growth inhibition of human UACC62 cells assessed as cell growth at 10^-8 M by sulforhodamine B assay; settings: read-out: Activity
# Malme-3M = assay: Growth inhibition of human MALME-3M cells assessed as cell growth at 10^-8 M by sulforhodamine B assay; settings: read-out: Activity
# SNB-75 [2] = assay: Growth inhibition of human SNB75 cells assessed as cell growth at 10^-8 M by sulforhodamine B assay; settings: read-out: Activity
# [3] = Growth inhibition of human HCC2998 cells assessed as cell growth at 10^-8 M by sulforhodamine B assay; settings: HCC 2998, read-out: Activity
# SR [4] = assay: Growth inhibition of human SR cells assessed as cell growth at 10^-8 M by sulforhodamine B assay; settings: read-out: Activity
# MOLT-4 = assay: Growth inhibition of human MOLT4 cells assessed as cell growth at 10^-8 M by sulforhodamine B assay; settings: read-out: Activity
# T47D = assay: Growth inhibition of human T47D cells by sulforhodamine B assay
# MCF7 = assay: Growth inhibition of human MCF7 cells by sulforhodamine B assay
# OVCAR-8 [5] = assay: Growth inhibition of human OVCAR8 cells by sulforhodamine B assay
# UACC-257 = assay: Growth inhibition of human UACC257 cells by sulforhodamine B assay
# SNB-75 [6] = assay: Growth inhibition of human SNB75 cells by sulforhodamine B assay
# BT-549 = assay: Growth inhibition of human BT549 cells assessed as cell growth at 10^-4 M by sulforhodamine B assay; settings: read-out: Activity
# [7] = Growth inhibition of human Hs 578T cells assessed as cell growth at 10^-4 M by sulforhodamine B assay; settings: read-out: Activity
# CAKI-1 = assay: Growth inhibition of human CAKI-1 cells assessed as cell growth at 10^-4 M by sulforhodamine B assay; settings: read-out: Activity
# OVCAR-8 [8] = assay: Growth inhibition of human OVCAR8 cells assessed as cell growth at 10^-4 M by sulforhodamine B assay; settings: read-out: Activity
# MDA-MB-435 = assay: Growth inhibition of human MDA-MB-435 cells assessed as cell growth at 10^-4 M by sulforhodamine B assay; settings: read-out: Activity
# SF-539 [9] = assay: Growth inhibition of human SF539 cells assessed as cell growth at 10^-4 M by sulforhodamine B assay; settings: read-out: Activity
# SR [10] = assay: Growth inhibition of human SR cells assessed as cell growth at 10^-4 M by sulforhodamine B assay; settings: read-out: Activity
# K562 [11] = assay: Growth inhibition of human K562 cells assessed as cell growth at 10^-4 M by sulforhodamine B assay; settings: read-out: Activity
# DU-145 [12] = assay: Growth inhibition of human DU145 cells assessed as cell growth at 10^-6 M by sulforhodamine B assay; settings: read-out: Activity
# UO-31 [13] = assay: Growth inhibition of human UO31 cells assessed as cell growth at 10^-6 M by sulforhodamine B assay; settings: read-out: Activity
# RXF 393 = assay: Growth inhibition of human RXF393 cells assessed as cell growth at 10^-6 M by sulforhodamine B assay; settings: read-out: Activity
# SK-MEL-2 = assay: Growth inhibition of human SK-MEL-2 cells assessed as cell growth at 10^-6 M by sulforhodamine B assay; settings: read-out: Activity
# M14 = assay: Growth inhibition of human M14 cells assessed as cell growth at 10^-6 M by sulforhodamine B assay; settings: read-out: Activity
# NCI-H23 = assay: Growth inhibition of human NCI-H23 cells assessed as cell growth at 10^-6 M by sulforhodamine B assay; settings: read-out: Activity
# DU-145 [14] = assay: Growth inhibition of human DU145 cells assessed as cell growth at 10^-7 M by sulforhodamine B assay; settings: read-out: Activity
# A498 = assay: Growth inhibition of human A498 cells assessed as cell growth at 10^-7 M by sulforhodamine B assay; settings: read-out: Activity
# OVCAR-8 [15] = assay: Growth inhibition of human OVCAR8 cells assessed as cell growth at 10^-7 M by sulforhodamine B assay; settings: read-out: Activity
# OVCAR-5 = assay: Growth inhibition of human OVCAR5 cells assessed as cell growth at 10^-7 M by sulforhodamine B assay; settings: read-out: Activity
# LOX IMVI = assay: Growth inhibition of human LOXIMVI cells assessed as cell growth at 10^-7 M by sulforhodamine B assay; settings: read-out: Activity
# SF-539 [16] = assay: Growth inhibition of human SF539 cells assessed as cell growth at 10^-7 M by sulforhodamine B assay; settings: read-out: Activity
# SF-268 = assay: Growth inhibition of human SF268 cells assessed as cell growth at 10^-7 M by sulforhodamine B assay; settings: read-out: Activity
# MDA-MB-231 = assay: Growth inhibition of human MDA-MB-231 cells assessed as cell growth at 10^-8 M by sulforhodamine B assay; settings: read-out: Activity
# UO-31 [17] = assay: Growth inhibition of human UO31 cells assessed as cell growth at 10^-8 M by sulforhodamine B assay; settings: read-out: Activity
# TK-10 = assay: Growth inhibition of human TK10 cells assessed as cell growth at 10^-8 M by sulforhodamine B assay; settings: read-out: Activity
# OVCAR-4 = assay: Growth inhibition of human OVCAR4 cells assessed as cell growth at 10^-8 M by sulforhodamine B assay; settings: read-out: Activity
# [18] = read-out: LC50 (the source's name)
# [19] = read-out: pLC50 (the source's name) (converted)
smiles,measurement,setting,value
C/C=C(/C)C(=O)O[C@@H]1CC(C)(C)C[C@H]2C3=CC[C@@H]4[C@@]5(C)CC[C@H](O)C(C)(C)[C@@H]5CC[C@@]4(C)[C@]3(C)CC[C@@]12C(=O)O [Reduced Lantadene A],GI50,KM12; read-out: GI50,1.35 µM
same,TGI,KM12; read-out: TGI,2.93 µM
same,GI50,KM12; read-out: pGI50 (converted),1.35 µM
same,TGI,KM12; read-out: pTGI (converted),2.95 µM
same,GI50,HCT-116; read-out: GI50,2.45 µM
same,LC50,HCT-116; read-out: LC50,65 µM
same,TGI,HCT-116; read-out: TGI,10.1 µM
same,GI50,HCT-116; read-out: pGI50 (converted),2.45 µM
same,LC50,HCT-116; read-out: pLC50 (converted),64.6 µM
same,TGI,HCT-116; read-out: pTGI (converted),10.2 µM
same,GI50,NCI-H322M; read-out: GI50,1.78 µM
same,LC50 (50% lethal concentration),NCI-H322M; read-out: LC50,6.74 µM
same,TGI,NCI-H322M; read-out: TGI,3.46 µM
same,GI50,NCI-H322M; read-out: pGI50 (converted),1.78 µM
same,LC50 (50% lethal concentration),NCI-H322M; read-out: pLC50 (converted),6.76 µM
same,TGI,NCI-H322M; read-out: pTGI (converted),3.47 µM
same,GI50,K562 [1]; read-out: GI50,2.64 µM
same,LC50,K562 [1]; read-out: LC50,> 100 µM
same,TGI,K562 [1]; read-out: TGI,30.4 µM
same,GI50,K562 [1]; read-out: pGI50 (converted),2.63 µM
same,LC50,K562 [1]; read-out: pLC50 (converted),> 100 µM
same,TGI,K562 [1]; read-out: pTGI (converted),30.2 µM
same,growth at 0.01 µM,UACC-62,96%
same,growth at 0.01 µM,Malme-3M,94%
same,growth at 0.01 µM,SNB-75 [2],78%
same,growth at 0.01 µM,[3],99%
same,growth at 0.01 µM,SR [4],83%
same,growth at 0.01 µM,MOLT-4,103%
same,GI50,T47D; read-out: GI50,11.8 µM
same,CC50,T47D; [18],> 100 µM
same,TGI,T47D; read-out: TGI,41.1 µM
same,GI50,T47D; read-out: pGI50 (converted),11.7 µM
same,CC50,T47D; [19],> 100 µM
same,TGI,T47D; read-out: pTGI (converted),40.7 µM
same,GI50,MCF7; read-out: GI50,3.09 µM
same,CC50,MCF7; [18],> 100 µM
same,TGI,MCF7; read-out: TGI,16.5 µM
same,GI50,MCF7; read-out: pGI50 (converted),3.09 µM
same,CC50,MCF7; [19],> 100 µM
same,TGI,MCF7; read-out: pTGI (converted),16.6 µM
same,GI50,OVCAR-8 [5]; read-out: GI50,1.92 µM
same,TGI,OVCAR-8 [5]; read-out: TGI,3.87 µM
same,GI50,OVCAR-8 [5]; read-out: pGI50 (converted),1.91 µM
same,TGI,OVCAR-8 [5]; read-out: pTGI (converted),3.89 µM
same,GI50,UACC-257; read-out: GI50,2.13 µM
same,CC50,UACC-257; [18],19.3 µM
same,TGI,UACC-257; read-out: TGI,4.93 µM
same,GI50,UACC-257; read-out: pGI50 (converted),2.14 µM
same,CC50,UACC-257; [19],19.5 µM
same,TGI,UACC-257; read-out: pTGI (converted),4.9 µM
same,GI50,SNB-75 [6]; read-out: GI50,1.77 µM
same,CC50,SNB-75 [6]; [18],> 100 µM
same,TGI,SNB-75 [6]; read-out: TGI,5.37 µM
same,GI50,SNB-75 [6]; read-out: pGI50 (converted),1.78 µM
same,CC50,SNB-75 [6]; [19],> 100 µM
same,TGI,SNB-75 [6]; read-out: pTGI (converted),5.37 µM
same,growth at 100 µM,BT-549,-90%
same,growth at 100 µM,[7],-38%
same,growth at 100 µM,CAKI-1,-65%
same,growth at 100 µM,OVCAR-8 [8],-39%
same,growth at 100 µM,MDA-MB-435,-47%
same,growth at 100 µM,SF-539 [9],-68%
same,growth at 100 µM,SR [10],-13%
same,growth at 100 µM,K562 [11],-2%
same,growth at 1 µM,DU-145 [12],109%
same,growth at 1 µM,UO-31 [13],89%
same,growth at 1 µM,RXF 393,87%
same,growth at 1 µM,SK-MEL-2,109%
same,growth at 1 µM,M14,89%
same,growth at 1 µM,NCI-H23,98%
same,growth at 0.1 µM,DU-145 [14],115%
same,growth at 0.1 µM,A498,77%
same,growth at 0.1 µM,OVCAR-8 [15],99%
same,growth at 0.1 µM,OVCAR-5,103%
same,growth at 0.1 µM,LOX IMVI,100%
same,growth at 0.1 µM,SF-539 [16],103%
same,growth at 0.1 µM,SF-268,106%
same,growth at 0.01 µM,MDA-MB-231,99%
same,growth at 0.01 µM,UO-31 [17],93%
same,growth at 0.01 µM,TK-10,103%
same,growth at 0.01 µM,OVCAR-4,97%

# — ChEMBL document CHEMBL2413072, “Synthesis and in vitro anticancer studies of novel C-2 arylidene congeners of lantadenes” (2013)
